For one assay, the target named is T1, human KCNQ2 (Homo sapiens, UniProt O43526).
T1 construct: expressed in transfected cells
In words: 86Rb flux in KCNQ2 expressing cells. It counts as cell-based. Conditions: KCNQ2 opening; for EC50: 86Rb efflux, CHO-K1 cells stably transfected with human KCNQ2; for Emax: Max effect determined in % of the effect of 30 mM KCl. As for the experimental part:
Chinese hamster ovary cells (CHO-K1) were stably transfected with human KCNQ2 inserted into the pCl-neo vector (Promega). Cells were plated at 2×10^5 cells/ml in 96-well plates in 100 μl media (MEM Alpha media, 10% FBS, 1% P/S, 1% L-Glu, and 1 mg/ml G418). At the time of plating the cells were furthermore loaded with 1 μCi/ml 86Rb over-night. On the subsequent day, the cells were washed with 3×50 μl assay buffer (HBSS+10 mM HEPES, pH 7.4) and incubated in 50 μl buffer with retigabine for 30 minutes at 37° C. Following this preincubation, the cell membrane was depolarized for 30 minutes at 37° C. with 15 mM KCl (final concentration) in assay buffer supplemented with the appropriate amount of compound to maintain drug concentration. The supernatant was removed and placed in pony-vials with 0.5 ml scintillation liquid and counted. The dose-dependent effect of the investigated compounds on the efflux of 86Rb through the hKCNQ2 channels were calculated according to the four parameter logistic equation: Y=Bottom+(Top-Bottom)/(1+10̂((LogEC50-X)*HillSlope)), where X is the logarithm of concentration, Y is the response, and HillSlope is the hill coefficient.
A representative selection of compounds of the invention were tested in the assay in addition to 6 comparative examples wherein 0 has been substituted with a 6-membered ring comprising up to two N atoms. Comparative 1-4 has been disclosed in WO 2009/127678 or WO 2009/127679 and comparative 5-6 are close analogues.

For the next assay, the target named is human α7 receptor (Homo sapiens, UniProt P36544). Kind of assay: α7 NNR flux assay (FDSS Ca assay). Format: cell-based. Conditions: positive allosteric modulation; rat GH4C1 cell line stably expressing human α7; acetylcholine 20 μM; % modulation relative to PNU-120596 set to 100%. The procedure, abridged: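 GH4C1 rat cells stably expressing human α7, loaded with Calcium-4 dye plus 2.5 mM probenecid in HBSS/20 mM HEPES pH 7.4, 3 mM CaCl2. Compounds (0.039–20 μM final) preincubated ~95 s before 20 μM acetylcholine (~EC100); Ex480/Em540 fluorescence on FDSS. Values are % modulation, with 3 μM PNU-120596 set to 100%.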

Assay [1] concerns α7 nACh receptors expressed in Xenopus oocytes. In words: α7 NNR oocyte assay (electrophysiological recordings). Format: cell-based, human or rat. The settings on record: tested subsequently in the oocyte assay. As for the experimental part: Expression of α7 nACh Receptors in Xenopus oocytes.
Oocytes were surgically removed from mature female Xenepus laevis anaesthetized in 0.4% MS-222 for 10-15 min. The oocytes were then digested at room temperature for 2-3 hours with 0.5 mg/ml collagenase (type IA Sigma-Aldrich) in OR2 buffer (82.5 mM NaCl, 2.0 mM KCl, 1.0 mM MgCl2 and 5.0 mM HEPES, pH 7.6). Oocytes avoid of the follicle layer were selected and incubated for 24 hours in Modified Barth's Saline buffer (88 mM NaCl, 1 mM […], 15 mM HEPES, 2.4 mM NaHCO3, 0.41 mM CaCl2, 0.82 mM MgSO4, 0.3 mM Ca(NO3)2) supplemented with 2 mM sodium pyruvate, 0.1 μg/l penicillin and 0.1 μg/l streptomycin. Stage 1V oocytes were identified and injected with 4.2-48 nl of nuclease free water containing 0.1-1.2 ng of cRNA coding for human α7 nACh receptors or 3.0-32 ng of cRNA coding for rat α7 nACh receptors and incubated at 18° C. for 1-10 days when they were used for electrophysiological recordings.
Electrophysiological Recordings of α7 nACh Receptors Expressed in Oocytes.
Oocytes were used for electrophysiological recordings 1-10 days after injection. Oocytes were placed in a 1 ml bath and perfused with Ringer buffer (115 mM NaCl, 2.5 mM KCl, 10 mM HEPES, 1.8 mM CaCl2, 0.1 mM MgCl2, pH 7.5). Cells were impaled with agar plugged 0.2-1 MΩ electrodes containing 3 M KCl and voltage clamped at −90 mV by a GeneClamp 500B amplifier. The experiments were performed at room temperature. Oocytes were continuously perfused with Ringer buffer and the drugs were applied in the perfusate. ACh (30 μM) applied for 30 sec were used as the standard agonist for activation of the α7 nACh receptors. In the standard screening set-up the new test compound (10 μM or 30 μM) were applied for 1 min of pre-application allowing for evaluation of agonistic activity followed by 30 sec of co-application with ACh (30 μM) allowing for evaluation of PAM activity. […] The drug induced effects on both the peak response and the total charge (AUC) response were calculated thus giving the effect of drug induced PAM activity as fold modulation of the control response. […]

Sequence of human α7 receptor (P36544 23-502): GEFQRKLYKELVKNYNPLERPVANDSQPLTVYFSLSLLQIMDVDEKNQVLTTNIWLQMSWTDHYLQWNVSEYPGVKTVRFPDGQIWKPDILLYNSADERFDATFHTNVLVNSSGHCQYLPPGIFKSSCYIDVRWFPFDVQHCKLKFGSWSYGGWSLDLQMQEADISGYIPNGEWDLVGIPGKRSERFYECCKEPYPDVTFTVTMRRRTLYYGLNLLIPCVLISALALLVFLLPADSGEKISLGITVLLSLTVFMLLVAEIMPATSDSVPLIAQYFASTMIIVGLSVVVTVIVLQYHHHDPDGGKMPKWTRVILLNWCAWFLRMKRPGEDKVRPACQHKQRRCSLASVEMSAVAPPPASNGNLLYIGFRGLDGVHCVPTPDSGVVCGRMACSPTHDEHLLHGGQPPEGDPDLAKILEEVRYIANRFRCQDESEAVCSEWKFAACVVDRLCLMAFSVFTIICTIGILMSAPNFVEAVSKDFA

By EC50 is commonly meant the concentration that produces a half-maximal response. Read a low EC50 as greater potency. One may read the Emax as the size of the effect at its maximum, as opposed to the concentration needed. Turning to `Cc1cc(C(=O)NC(C)c2ccc3[nH]c(C(F)(F)F)cc3c2)on1` (single isomer, unassigned) [Compound 96, 3-methyl-N-[1-[2-(trifluoromethyl)-1H-indol-5-yl]ethyl]isoxazole-5-carboxamide], the EC50 at human KCNQ2 is > 50 µM; at human α7 receptor, 4.2 µM. The Emax at human KCNQ2 was determined as 5.4%.
On to `Cc1cc2cc(CNC(=O)c3occc3C)ccc2[nH]1` [Compound 1, 3-methyl-N-[(2-methyl-1H-indol-5-yl)methyl]furan-2-carboxamide], for which, on human KCNQ2, the half-maximal effective concentration (EC50) was > 50 µM and the Emax turned out to be 2%. This compound also registered an EC50 at human α7 receptor of 2.7 µM.
The like results for `Cc1cc2cc(CNC(=O)c3ccc(C)s3)ccc2[nH]1` [Compound 24, 5-methyl-N-[(2-methyl-1H-indol-5-yl)methyl]thiophene-2-carboxamide] were, in that order, > 50 µM, 5% and 0.34 µM.
As to `Cc1cc(C(=O)NCc2ccc3[nH]c(C)cc3c2)on1` [Compound 28, 3-methyl-N-[(2-methyl-1H-indol-5-yl)methyl]isoxazole-5-carboxamide], the Emax on human KCNQ2 came out at 5.7%. The compound further returned an EC50 on human α7 receptor of 2.97 µM.
With `Cc1cc2cc(CNC(=O)c3cnn(C)c3)ccc2[nH]1` [Compound 29, 1-methyl-N-[(2-methyl-1H-indol-5-yl)methyl]pyrazole-4-carboxamide], at human KCNQ2, the EC50 was > 50 µM and the Emax came to 4%. On human α7 receptor, this compound gave an EC50 of 9.25 µM.
Regarding `Cn1cc(C(=O)NCc2ccc3[nH]c(C(F)(F)F)cc3c2)cn1` [Compound 30, 1-methyl-N-[[2-(trifluoromethyl)-1H-indol-5-yl]methyl]pyrazole-4-carboxamide], on human KCNQ2, the EC50 is > 50 µM and the Emax amounted to 9.6%. For the same compound, on human α7 receptor, a half-maximal response (EC50) required 5.8 µM.
On to `O=C(NCc1ccc2[nH]c(C(F)(F)F)cc2c1)c1ccno1` [Compound 31, N-[[2-(trifluoromethyl)-1H-indol-5-yl]methyl]isoxazole-5-carboxamide], for which, on human KCNQ2, the EC50 was > 50 µM and the Emax worked out at 4.8%.
In the case of `Cc1cc2cc(CNC(=O)c3cnc(C)s3)ccc2[nH]1` [Compound 35, 2-methyl-N-[(2-methyl-1H-indol-5-yl)methyl]thiazole-5-carboxamide], at human KCNQ2, the Emax amounted to 7.5%. This compound also yielded a 50% effective concentration (EC50) at human α7 receptor of 2.45 µM.
The matching figures for `Cc1cc2cc(CNC(=O)c3cnn(CC(F)(F)F)c3)ccc2[nH]1` [Compound 36, N-[(2-methyl-1H-indol-5-yl)methyl]-1-(2,2,2-trifluoroethyl)pyrazole-4-carboxamide]: 3.3% and 1.49 µM.
As to `O=C(NCc1ccc2[nH]c(C(F)(F)F)cc2c1)c1cnn(CC(F)(F)F)c1` [Compound 40, 1-(2,2,2-trifluoroethyl)-N-[[2-(trifluoromethyl)-1H-indol-5-yl]methyl]pyrazole-4-carboxamide], the EC50 on human KCNQ2 is > 50 µM; at human α7 receptor, 3.5 µM. On human KCNQ2, the Emax was 2.4%.
As to `Cc1cc(C(=O)N[C@H](C)c2ccc3[nH]c(C)cc3c2)sn1` [Compound 47, 3-methyl-N-[(1R)-1-(2-methyl-1H-indol-5-yl)ethyl]isothiazole-5-carboxamide], at human α7 receptor, the EC50 is > 20 µM. Further, the “NNR PAM activity in the oocyte assay compared with the flux assay” value in assay [1] was “significantly better NNR PAM activity”.
Regarding `Cc1cc(C(=O)N[C@H](C)c2ccc3[nH]c(C)cc3c2)on1` [Compound 61, 3-methyl-N-[(1R)-1-(2-methyl-1H-indol-5-yl)ethyl]isoxazole-5-carboxamide], the Emax at human KCNQ2 is -5%. The same compound came in with an EC50 on human α7 receptor of 2.33 µM.
The matching figures for `Cc1cc(C(=O)NCc2ccc3[nH]c(C(F)(F)F)cc3c2)on1` [Compound 65, 3-methyl-N-[[2-(trifluromethyl)-1H-indol-5-yl]methyl]isoxazole-5-carboxamide]: 8.1% and 5 µM.
Turning to `Cc1ncc(C(=O)NCc2ccc3[nH]c(C(F)(F)F)cc3c2)s1` [Compound 66, 2-methyl-N-[[2-(trifluoromethyl)-1H-indol-5-yl]methyl]thiazole-5-carboxamide], on human KCNQ2, the EC50 is > 50 µM and the Emax was found to be 3.7%. The same compound had an EC50 at human α7 receptor of 8.8 µM.
For the compound `CC(C)c1cc(C(=O)NCc2ccc3[nH]c(C(F)(F)F)cc3c2)on1` [Compound 67, 3-isopropyl-N-[[2-(trifluoromethyl)-1H-indol-5-yl]methyl]isoxazole-5-carboxamide], on human KCNQ2, the EC50 was > 50 µM and the Emax was 5.3%. Besides, the EC50 on human α7 receptor came to 6.1 µM.
`Cc1cc2cc([C@@H](C)NC(=O)c3cnn(CC(F)(F)F)c3)ccc2[nH]1` [Compound 86, N-[(1R)-1-(2-methyl-1H-indol-5-yl)ethyl]-1-(2,2,2-trifluoroethyl)pyrazole-4-carboxamide]: the concentration giving a half-maximal response (EC50) at human α7 receptor was > 20 µM. Moreover, in assay [1], the “NNR PAM activity in the oocyte assay compared with the flux assay” value was “significantly better NNR PAM activity”.
With `O=C(NCc1ccc2[nH]c(C(F)(F)F)cc2c1)c1ncc(C(F)(F)F)cn1` [Compound C1, 5-Trifluoromethyl-pyrimidine-2-carboxylic acid (2-trifluoromethyl-1H-indol-5-ylmethyl)amide, reference compound], at human KCNQ2, the EC50 was > 50 µM and the Emax worked out at 34%.
The like results for `O=C(NCc1ccc2[nH]c(C(F)(F)F)cc2c1)c1ccc(-c2ccccc2)nc1` [Compound C2, 6-Phenyl-N-(2-trifluoromethyl-1H-indol-5-ylmethyl)-nicotinamide, reference compound] were, in that order, > 50 µM and 31%.
The like results for `O=C(NCc1ccc2[nH]c(C(F)(F)F)cc2c1)c1ccc(C(F)(F)F)nc1` [Compound C3, 6-Trifluoromethyl-N-(2-trifluoromethyl-1H-indol-5-ylmethyl)-nicotinamide, reference compound] were, in that order, 17 µM and 46%.
The like results for `N#Cc1ccc(C(=O)NCc2ccc3[nH]c(C(F)(F)F)cc3c2)cn1` [Compound C4, 6-Cyano-N-(2-trifluoromethyl-1H-indol-5-ylmethyl)-nicotinamide, reference compound] were, in that order, > 50 µM and 15%.
In the case of `COc1ccc(C(=O)NCc2ccc3[nH]c(C)cc3c2)cc1` [Compound C5, 4-Methoxy-N-(2-methyl-1H-indol-5-ylmethyl)-benzamide, reference compound], at human KCNQ2, the EC50 is > 50 µM and the Emax turned out to be 17%.
The like results for `Cc1cc2cc(CNC(=O)c3ccccc3F)ccc2n1C` [Compound C6, N-(1,2-Dimethyl-1H-indol-5-ylmethyl)-2-fluoro-benzamide, reference compound] were, in that order, > 50 µM and 13%.

(Values after patent publication US20120252853A1, “Positive allosteric modulators of nicotinic acetylcholine receptor” (H. Lundbeck A/S, priority 2011, published 2012).)
